Among the targets are Adenosine receptor A2a (Homo sapiens, UniProt P29274); Vasopressin V2 receptor (Homo sapiens, UniProt P30518); Melanocortin receptor 3 (Homo sapiens, UniProt P41968); Motilin receptor (Homo sapiens, UniProt O43193); D(3) dopamine receptor (Homo sapiens, UniProt P35462).
For assay [1], the target named is Voltage-gated inwardly rectifying potassium channel KCNH2 (Homo sapiens, UniProt Q12809). Type of assay: functional.
For assay [2], the target named is T1, Alpha-2A adrenergic receptor (Homo sapiens, UniProt P08913).
T1 sequence (P08913 whole entry): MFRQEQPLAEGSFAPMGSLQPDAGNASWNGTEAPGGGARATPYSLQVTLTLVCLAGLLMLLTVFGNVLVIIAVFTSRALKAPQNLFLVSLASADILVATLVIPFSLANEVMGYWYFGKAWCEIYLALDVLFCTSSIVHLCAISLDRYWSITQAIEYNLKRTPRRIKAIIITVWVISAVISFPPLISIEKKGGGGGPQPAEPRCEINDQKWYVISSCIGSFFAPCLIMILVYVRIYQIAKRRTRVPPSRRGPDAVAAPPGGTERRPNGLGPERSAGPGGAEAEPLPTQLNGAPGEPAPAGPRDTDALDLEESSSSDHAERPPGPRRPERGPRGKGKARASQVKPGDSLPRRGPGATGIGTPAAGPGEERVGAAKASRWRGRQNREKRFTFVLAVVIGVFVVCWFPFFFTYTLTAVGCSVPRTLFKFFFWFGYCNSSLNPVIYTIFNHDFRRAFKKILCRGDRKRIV
Type of assay: functional, cell-based.

The target in assay [3] is T2, Type-1 angiotensin II receptor (Homo sapiens, UniProt P30556).
T2 sequence (P30556 whole entry): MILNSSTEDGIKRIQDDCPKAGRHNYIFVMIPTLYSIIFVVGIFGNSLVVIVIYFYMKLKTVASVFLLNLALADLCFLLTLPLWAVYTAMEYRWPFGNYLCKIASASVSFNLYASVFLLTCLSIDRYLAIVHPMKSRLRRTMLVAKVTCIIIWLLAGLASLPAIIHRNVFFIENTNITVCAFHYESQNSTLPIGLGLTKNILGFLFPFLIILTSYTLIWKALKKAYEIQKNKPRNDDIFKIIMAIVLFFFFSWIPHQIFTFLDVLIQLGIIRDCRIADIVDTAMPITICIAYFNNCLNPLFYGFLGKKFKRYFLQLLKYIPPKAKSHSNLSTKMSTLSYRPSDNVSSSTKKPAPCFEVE

A further assay concerns the target T3, B2 bradykinin receptor (Homo sapiens, UniProt P30411).
T3 sequence (P30411 whole entry): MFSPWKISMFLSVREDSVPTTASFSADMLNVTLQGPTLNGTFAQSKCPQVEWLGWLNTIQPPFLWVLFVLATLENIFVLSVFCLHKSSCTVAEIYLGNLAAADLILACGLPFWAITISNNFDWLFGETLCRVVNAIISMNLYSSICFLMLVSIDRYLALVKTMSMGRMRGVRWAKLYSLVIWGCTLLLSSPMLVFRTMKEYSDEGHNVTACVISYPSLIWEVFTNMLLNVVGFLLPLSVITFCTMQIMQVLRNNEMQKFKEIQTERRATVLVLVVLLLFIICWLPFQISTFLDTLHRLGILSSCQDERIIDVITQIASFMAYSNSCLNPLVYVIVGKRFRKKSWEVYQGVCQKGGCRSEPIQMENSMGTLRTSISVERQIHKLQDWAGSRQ

Assay [4] has as its target Neuronal acetylcholine receptor subunit alpha-4 (Homo sapiens, UniProt P43681).
The target in assay [5] is Growth hormone secretagogue receptor type 1 (Homo sapiens, UniProt Q92847).
Chain of Growth hormone secretagogue receptor type 1 (Q92847 whole entry): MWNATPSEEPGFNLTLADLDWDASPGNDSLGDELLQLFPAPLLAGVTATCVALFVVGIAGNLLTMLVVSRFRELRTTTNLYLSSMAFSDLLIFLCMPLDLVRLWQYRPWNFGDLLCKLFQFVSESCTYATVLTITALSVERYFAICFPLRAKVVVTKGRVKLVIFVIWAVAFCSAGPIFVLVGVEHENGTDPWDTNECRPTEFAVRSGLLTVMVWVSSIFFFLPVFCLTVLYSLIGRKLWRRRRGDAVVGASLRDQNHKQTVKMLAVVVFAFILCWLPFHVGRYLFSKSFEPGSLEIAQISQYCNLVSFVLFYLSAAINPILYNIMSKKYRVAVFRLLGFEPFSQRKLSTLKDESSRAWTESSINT
In assay [6] the target is Sodium-dependent noradrenaline transporter (Homo sapiens, UniProt P23975).
Chain of Sodium-dependent noradrenaline transporter (P23975 whole entry): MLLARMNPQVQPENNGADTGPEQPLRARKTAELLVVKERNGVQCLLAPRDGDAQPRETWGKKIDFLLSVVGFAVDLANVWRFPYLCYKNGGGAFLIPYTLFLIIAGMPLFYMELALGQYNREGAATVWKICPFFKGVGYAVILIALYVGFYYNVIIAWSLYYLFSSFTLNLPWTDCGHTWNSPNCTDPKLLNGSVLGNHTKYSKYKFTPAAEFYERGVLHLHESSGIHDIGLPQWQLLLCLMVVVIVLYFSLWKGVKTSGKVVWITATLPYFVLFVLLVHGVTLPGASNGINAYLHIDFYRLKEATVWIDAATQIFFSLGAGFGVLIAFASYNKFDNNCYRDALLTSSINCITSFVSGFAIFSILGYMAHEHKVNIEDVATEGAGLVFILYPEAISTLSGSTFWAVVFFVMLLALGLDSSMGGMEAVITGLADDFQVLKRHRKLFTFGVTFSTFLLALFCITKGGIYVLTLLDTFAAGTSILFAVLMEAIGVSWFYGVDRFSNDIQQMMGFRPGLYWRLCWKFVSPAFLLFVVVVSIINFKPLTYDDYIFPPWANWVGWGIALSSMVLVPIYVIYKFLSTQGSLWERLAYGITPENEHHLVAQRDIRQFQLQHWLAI
Assay [7] concerns the target T4, Amine oxidase [flavin-containing] A (Homo sapiens, UniProt P21397).
T4 sequence (P21397 whole entry): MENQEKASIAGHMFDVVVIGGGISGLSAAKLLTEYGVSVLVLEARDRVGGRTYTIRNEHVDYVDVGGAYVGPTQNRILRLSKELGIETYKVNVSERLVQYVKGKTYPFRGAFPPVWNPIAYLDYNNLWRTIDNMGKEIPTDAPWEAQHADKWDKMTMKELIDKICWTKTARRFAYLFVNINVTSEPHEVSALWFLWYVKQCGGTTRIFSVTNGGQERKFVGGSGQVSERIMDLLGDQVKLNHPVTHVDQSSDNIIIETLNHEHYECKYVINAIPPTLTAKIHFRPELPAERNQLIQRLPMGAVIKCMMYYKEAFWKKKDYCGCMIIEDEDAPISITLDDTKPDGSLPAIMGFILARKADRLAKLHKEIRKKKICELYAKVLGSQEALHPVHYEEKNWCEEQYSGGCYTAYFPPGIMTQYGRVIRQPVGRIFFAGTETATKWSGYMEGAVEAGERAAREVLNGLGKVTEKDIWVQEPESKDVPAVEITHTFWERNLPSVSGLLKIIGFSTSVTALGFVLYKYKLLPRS
Type of assay: functional.

Assay [8] addresses T5, Neuropeptide Y receptor type 1 (Homo sapiens, UniProt P25929).
T5 sequence (P25929 whole entry): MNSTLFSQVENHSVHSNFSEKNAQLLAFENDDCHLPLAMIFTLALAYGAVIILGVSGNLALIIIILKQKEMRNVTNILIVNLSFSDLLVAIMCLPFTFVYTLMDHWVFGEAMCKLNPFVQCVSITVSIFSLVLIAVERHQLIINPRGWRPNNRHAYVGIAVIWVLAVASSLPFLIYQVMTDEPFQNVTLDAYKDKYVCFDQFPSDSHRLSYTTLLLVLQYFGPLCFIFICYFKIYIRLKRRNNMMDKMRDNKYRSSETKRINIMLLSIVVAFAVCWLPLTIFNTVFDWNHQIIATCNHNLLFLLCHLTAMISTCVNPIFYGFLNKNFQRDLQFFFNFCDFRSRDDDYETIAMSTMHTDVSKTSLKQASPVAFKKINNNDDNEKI
The following applies: read-out: AC50.

For assay [9], the target named is Delta-type opioid receptor (Homo sapiens, UniProt P41143).
Chain of Delta-type opioid receptor (P41143 whole entry): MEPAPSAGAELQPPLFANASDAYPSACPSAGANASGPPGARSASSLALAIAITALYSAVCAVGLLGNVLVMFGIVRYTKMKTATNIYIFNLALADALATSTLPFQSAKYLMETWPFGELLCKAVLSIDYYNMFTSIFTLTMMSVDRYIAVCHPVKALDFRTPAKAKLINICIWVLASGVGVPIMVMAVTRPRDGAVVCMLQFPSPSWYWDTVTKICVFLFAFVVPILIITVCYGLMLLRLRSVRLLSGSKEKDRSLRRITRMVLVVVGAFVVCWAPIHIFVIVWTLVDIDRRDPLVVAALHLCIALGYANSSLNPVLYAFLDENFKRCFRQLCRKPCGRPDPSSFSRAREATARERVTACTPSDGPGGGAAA

Among the data in ChEMBL document CHEMBL5291721, “A preclinical secondary pharmacology resource illuminates target-adverse drug reaction associations of marketed drugs” (Nat Commun, 2023) are AC50 values, retold here.
Further: assay procedure not described here.

Chain of Adenosine receptor A2a (P29274 whole entry): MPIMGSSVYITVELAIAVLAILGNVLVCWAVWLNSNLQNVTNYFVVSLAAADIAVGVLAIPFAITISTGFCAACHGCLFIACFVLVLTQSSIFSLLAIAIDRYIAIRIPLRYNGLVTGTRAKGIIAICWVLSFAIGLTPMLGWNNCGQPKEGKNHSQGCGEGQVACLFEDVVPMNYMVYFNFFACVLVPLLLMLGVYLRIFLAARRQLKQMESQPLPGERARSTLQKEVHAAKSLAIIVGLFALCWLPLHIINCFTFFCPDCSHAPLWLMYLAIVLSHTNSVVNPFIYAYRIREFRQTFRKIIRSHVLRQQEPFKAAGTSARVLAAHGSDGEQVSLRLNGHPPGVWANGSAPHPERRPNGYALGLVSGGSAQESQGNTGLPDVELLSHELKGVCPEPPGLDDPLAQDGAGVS
Chain of Vasopressin V2 receptor (P30518 whole entry): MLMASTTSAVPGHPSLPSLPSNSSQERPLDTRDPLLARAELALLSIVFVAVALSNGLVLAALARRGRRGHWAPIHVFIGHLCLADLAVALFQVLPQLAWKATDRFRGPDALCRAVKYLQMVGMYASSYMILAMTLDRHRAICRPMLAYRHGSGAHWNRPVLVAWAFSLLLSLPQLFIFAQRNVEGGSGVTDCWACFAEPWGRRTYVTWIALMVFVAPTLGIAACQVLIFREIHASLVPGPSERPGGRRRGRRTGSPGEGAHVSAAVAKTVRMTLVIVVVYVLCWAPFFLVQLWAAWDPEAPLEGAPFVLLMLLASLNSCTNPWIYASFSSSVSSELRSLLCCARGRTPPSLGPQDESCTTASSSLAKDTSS
Chain of Voltage-gated inwardly rectifying potassium channel KCNH2 (Q12809 whole entry): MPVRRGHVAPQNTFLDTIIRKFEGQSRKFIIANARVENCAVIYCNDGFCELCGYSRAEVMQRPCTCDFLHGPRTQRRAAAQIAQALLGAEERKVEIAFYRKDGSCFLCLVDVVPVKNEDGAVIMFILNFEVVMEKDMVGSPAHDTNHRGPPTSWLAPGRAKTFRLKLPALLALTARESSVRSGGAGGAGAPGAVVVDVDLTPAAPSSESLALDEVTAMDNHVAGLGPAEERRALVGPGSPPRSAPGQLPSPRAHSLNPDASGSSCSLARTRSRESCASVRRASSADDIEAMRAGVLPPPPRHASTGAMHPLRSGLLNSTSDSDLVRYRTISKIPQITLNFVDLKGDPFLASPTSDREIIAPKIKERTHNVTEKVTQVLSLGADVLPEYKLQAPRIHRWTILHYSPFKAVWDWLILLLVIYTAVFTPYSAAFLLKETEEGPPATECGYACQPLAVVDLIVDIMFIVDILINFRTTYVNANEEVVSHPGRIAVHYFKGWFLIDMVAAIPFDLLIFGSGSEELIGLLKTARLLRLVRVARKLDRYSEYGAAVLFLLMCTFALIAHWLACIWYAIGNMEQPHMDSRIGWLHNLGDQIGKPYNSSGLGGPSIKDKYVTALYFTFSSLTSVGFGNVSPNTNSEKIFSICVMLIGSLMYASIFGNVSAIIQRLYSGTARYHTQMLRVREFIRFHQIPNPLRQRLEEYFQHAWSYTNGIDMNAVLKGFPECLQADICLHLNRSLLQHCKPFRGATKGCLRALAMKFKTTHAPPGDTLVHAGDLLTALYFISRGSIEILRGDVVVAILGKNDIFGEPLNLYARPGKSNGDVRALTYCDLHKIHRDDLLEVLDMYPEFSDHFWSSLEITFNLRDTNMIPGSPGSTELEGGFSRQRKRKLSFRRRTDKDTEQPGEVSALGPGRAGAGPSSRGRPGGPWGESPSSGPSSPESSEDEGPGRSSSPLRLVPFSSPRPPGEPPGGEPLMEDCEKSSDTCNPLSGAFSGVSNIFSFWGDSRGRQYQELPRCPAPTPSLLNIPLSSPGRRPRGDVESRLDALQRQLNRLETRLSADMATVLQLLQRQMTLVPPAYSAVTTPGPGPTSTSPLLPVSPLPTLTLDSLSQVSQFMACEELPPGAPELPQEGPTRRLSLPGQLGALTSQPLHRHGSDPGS
Chain of Motilin receptor (O43193 whole entry): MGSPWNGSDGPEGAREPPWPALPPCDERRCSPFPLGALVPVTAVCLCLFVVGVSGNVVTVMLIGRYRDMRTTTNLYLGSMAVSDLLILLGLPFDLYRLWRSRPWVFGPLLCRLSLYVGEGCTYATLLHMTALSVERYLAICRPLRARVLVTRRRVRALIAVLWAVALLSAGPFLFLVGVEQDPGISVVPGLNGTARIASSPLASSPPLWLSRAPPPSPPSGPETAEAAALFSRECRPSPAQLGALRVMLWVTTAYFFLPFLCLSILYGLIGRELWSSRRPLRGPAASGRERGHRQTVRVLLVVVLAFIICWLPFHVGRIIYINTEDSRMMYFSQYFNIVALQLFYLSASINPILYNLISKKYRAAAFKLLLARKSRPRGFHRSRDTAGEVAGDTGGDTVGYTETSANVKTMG
Chain of Melanocortin receptor 3 (P41968 whole entry): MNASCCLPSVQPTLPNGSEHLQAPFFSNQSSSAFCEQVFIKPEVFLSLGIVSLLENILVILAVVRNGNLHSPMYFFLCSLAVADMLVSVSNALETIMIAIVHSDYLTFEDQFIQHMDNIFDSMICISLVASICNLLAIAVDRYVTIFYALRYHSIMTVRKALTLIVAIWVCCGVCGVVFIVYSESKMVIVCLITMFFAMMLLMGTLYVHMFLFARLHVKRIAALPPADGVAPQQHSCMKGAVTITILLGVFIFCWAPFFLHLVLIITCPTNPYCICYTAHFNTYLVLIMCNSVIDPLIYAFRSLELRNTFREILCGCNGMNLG
Chain of Neuronal acetylcholine receptor subunit alpha-4 (P43681 whole entry): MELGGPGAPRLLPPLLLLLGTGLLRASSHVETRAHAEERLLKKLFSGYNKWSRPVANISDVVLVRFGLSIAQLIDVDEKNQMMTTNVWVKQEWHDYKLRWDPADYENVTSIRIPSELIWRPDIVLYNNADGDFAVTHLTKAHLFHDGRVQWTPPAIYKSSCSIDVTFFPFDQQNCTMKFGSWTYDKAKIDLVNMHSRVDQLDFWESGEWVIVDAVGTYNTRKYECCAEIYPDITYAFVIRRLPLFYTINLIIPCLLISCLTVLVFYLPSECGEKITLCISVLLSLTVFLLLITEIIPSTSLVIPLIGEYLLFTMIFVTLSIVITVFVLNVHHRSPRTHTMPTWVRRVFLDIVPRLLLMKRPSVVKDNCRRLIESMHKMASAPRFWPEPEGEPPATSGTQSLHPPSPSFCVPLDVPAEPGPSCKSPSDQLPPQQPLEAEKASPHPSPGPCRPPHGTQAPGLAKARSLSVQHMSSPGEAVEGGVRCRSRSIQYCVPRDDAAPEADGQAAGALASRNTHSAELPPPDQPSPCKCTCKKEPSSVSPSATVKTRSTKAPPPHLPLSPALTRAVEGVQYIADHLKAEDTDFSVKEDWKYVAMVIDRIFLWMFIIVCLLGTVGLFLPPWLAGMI

One may read the AC50 as the midpoint of the concentration-response curve, whichever way the signal moves. Molecule `CC(C)N(CCNC(=O)CN1CCCC1=O)C(C)C` gave an AC50 in assay [1] of over 30 µM.

As to `Cc1cc(N)c2ccccc2[n+]1CCCCCCCCCC[n+]1c(C)cc(N)c2ccccc21`, in [1], the activity was half-maximal at 0.133 µM (AC50).

With `CCOC(=O)[C@H](CCc1ccccc1)N[C@@H](C)C(=O)N(CC(=O)O)C1Cc2ccccc2C1`, the concentration at half-maximal activity (AC50) in assay [1] was over 30 µM.

`C=CCSCC1Nc2cc(Cl)c(S(N)(=O)=O)cc2S(=O)(=O)N1` (stereo not given) [ALTHIAZIDE] showed an AC50 in assay [1] of over 30 µM.

Regarding `CCC(C)C1(CC)C(=O)NC(=O)NC1=O` (stereo not given) [BUTABARBITAL], the AC50 (on Adenosine receptor A2a; in [2]; in assay [3]; at Vasopressin V2 receptor; on B2 bradykinin receptor; in assay [4]) was over 30 µM throughout. Moreover, the AC50 (in [5]; in assay [1]; on Melanocortin receptor 3; on Motilin receptor; in assay [6]; in assay [7]) was over 30 µM throughout.

For the molecule `CC(=O)O[C@]1(C(C)=O)CC[C@H]2[C@@H]3C=C(Cl)C4=CC(=O)CC[C@]4(C)[C@H]3CC[C@@]21C` [CHLORMADINONE ACETATE], the AC50 in [1] was over 30 µM.

Take `NC(=O)OCC(O)COc1ccc(Cl)cc1` (stereo not given) [CHLORPHENESIN CARBAMATE]: the concentration at half-maximal activity (AC50) in [1] is over 30 µM.

`O=C(O)c1cn(C2CC2)c2cc(N3CCNCC3)c(F)cc2c1=O` [CIPROFLOXACIN]: the AC50 (at Adenosine receptor A2a; in assay [3]; at Vasopressin V2 receptor; at B2 bradykinin receptor; in assay [5]; at Melanocortin receptor 3) was over 30 µM in each case. The AC50 on Motilin receptor is over 10 µM; in assay [8], over 30 µM.

In [1], `Cc1ccccc1N1CCN(CCc2nnc3n2CCCC3)CC1` [DAPIPRAZOLE] came in with an AC50 of over 30 µM.

Consider `CCC(=O)O[C@]1(C(=O)CCl)[C@@H](C)C[C@H]2[C@@H]3C[C@H](F)C4=CC(=O)C=C[C@]4(C)[C@@]3(F)[C@@H](O)C[C@@]21C` [HALOBETASOL PROPIONATE], for which the AC50 in assay [1] is over 30 µM.

In [1], `CC(N)Cc1ccc(O)cc1` (stereo not given) [HYDROXYAMPHETAMINE] gave an AC50 of over 30 µM.

For the molecule `Cc1cc(NC(=O)C2=C(O)c3ccccc3S(=O)(=O)N2C)no1` [ISOXICAM], the AC50 in assay [1] is over 30 µM.

`COc1cc2c(cc1OC)CC(=O)N(CCCN(C)C[C@H]1Cc3cc(OC)c(OC)cc31)CC2` [IVABRADINE] had an AC50 in assay [1] of 30 µM.

Turning to `CC(C)(C)NC[C@H](O)COc1cccc2c1CCCC2=O` [LEVOBUNOLOL], the AC50 in [1] was over 30 µM.

`Cc1c(N(C)CS(=O)(=O)O)c(=O)n(-c2ccccc2)n1C` [METAMIZOLE]: the AC50 in assay [1] was over 30 µM.

With `CN1C(=O)/C(=N\NC(N)=S)c2ccccc21` [METHISAZONE], the AC50 in assay [1] was over 30 µM.

For `COC(=O)c1ccc(O)cc1` [METHYLPARABEN], the AC50 in [1] was over 30 µM.

For `O=[N+]([O-])c1ccc(O)c2ncccc12` [NITROXOLINE], the AC50 is over 30 µM in assay [2]; 28 µM in assay [1]; 5.7 µM in assay [9]; over 30 µM in assay [7]; 5.8 µM at D(3) dopamine receptor.

Turning to `CCCc1nc(C(C)(C)O)c(C(=O)O)n1Cc1ccc(-c2ccccc2-c2nnn[nH]2)cc1` [OLMESARTAN], the AC50 was 0.0004 µM in assay [3] and over 30 µM in assay [1].

As for `NCC(CC(=O)O)c1ccccc1` (stereo not given) [PHENIBUT], in [1], the AC50 is over 30 µM.

With `CC[C@@H]([C@H](C)O)n1ncn(-c2ccc(N3CCN(c4ccc(OC[C@@H]5CO[C@@](Cn6cncn6)(c6ccc(F)cc6F)C5)cc4)CC3)cc2)c1=O` [POSACONAZOLE], the AC50 (in assay [1]; at Melanocortin receptor 3; in assay [9]; in assay [6]; in [7]; at D(3) dopamine receptor) was over 30 µM in each case.

Regarding `CCCN[C@H]1CCc2nc(N)sc2C1` [PRAMIPEXOLE], the AC50 is over 30 µM at Adenosine receptor A2a; over 30 µM in assay [3]; over 30 µM on Vasopressin V2 receptor; over 30 µM on B2 bradykinin receptor; over 10 µM in [4]; over 30 µM in [5]. The AC50 in [1] is over 30 µM; at Melanocortin receptor 3 it was over 30 µM; on Motilin receptor it was over 10 µM; in assay [8], over 30 µM; in assay [9], over 30 µM; in [6], over 30 µM. The same molecule showed an AC50 in assay [7] of over 10 µM.

In assay [1], `Cc1ncc(COP(=O)(O)O)c(C=O)c1O` [PYRIDOXAL PHOSPHATE ANHYDROUS] yielded an AC50 of over 30 µM.

The molecule `COc1ccc(CN(CCN(C)C)c2ccccn2)cc1` [PYRILAMINE] gave an AC50 in assay [1] of 9.59 µM.

In the case of `c1ccc2c(c1)CCc1ccccc1N2C1CN2CCC1CC2` (stereo not given) [QUINUPRAMINE], the AC50 in assay [1] is 12 µM.

In the case of `CNCc1ccc(-c2[nH]c3cc(F)cc4c3c2CCNC4=O)cc1` [RUCAPARIB], the AC50 (at Adenosine receptor A2a; in assay [3]; on Vasopressin V2 receptor; at B2 bradykinin receptor; in assay [4]; in assay [5]) was over 30 µM throughout. Moreover, the half-maximal activity concentration (AC50) was 14.1 µM in [1]; over 30 µM at Melanocortin receptor 3; over 30 µM on Motilin receptor; over 30 µM in assay [8]; 20.7 µM in assay [6]; over 10 µM in assay [7].

Regarding `C[C@H](Cc1cc2c(c(C(N)=O)c1)N(CCCO)CC2)NCCOc1ccccc1OCC(F)(F)F` [SILODOSIN], the AC50 in assay [2] is over 30 µM; in assay [1], 12.8 µM.

`CCOC(=O)N1CSC[C@H]1C(=O)O` [TELMESTEINE] gave an AC50 in assay [1] of over 30 µM.
